Measurements as given in patent publication US20250041216A1, “Methotrexate Composition” (Rosemont Pharmaceuticals Ltd., priority 2012, published 2025).

Assay: Stability studies of example 1 formulation at different pH and buffer strength, visual precipitate (Table 3)
Type: physicochemical
Details: pH values below 6.0, over time
Experimental: Batches were prepared at various pHs in the range 5.6-6.0 and were prepared at ½, 1/10th and 1/20th the original buffer strength of example 1 (i.e. the citric acid monohydrate and disodium hydrogen phosphate dihydrate buffer system). The original buffer strength was taken from a citrate-phosphate buffer table (http://microscopy.berkeley.edu/Resources/instruction/buffers.html).
The stability studies were undertaken using the example 1 formulation but using either a citrate-phosphate buffer system at half the strength (i.e. 43 mmol) or 1/10th of the strength (i.e. 8.7 mmol) compared to that of example 1. The formulations were adjusted to 5 different pH values; 5.6, 5.7, 5.8, 5.9 and 6.0. One set of formulations were stored at 5° C. and one set of formulations were stored at 25° C. for each buffer strength and each pH value for the duration of the study. The study took place over a 6-month time period.

For `CN(Cc1cnc2nc(N)nc(N)c2n1)c1ccc(C(=O)N[C@@H](CCC(=O)O)C(=O)O)cc1` [Methotrexate], the “Precipitation out of solution” value was “precipitate out of solution over time”.
